In patent US7803779B2, “Drugs for the treatment and/or prophylaxis of gastroparesis symptom” (Chugai Seiyaku Kabushiki Kaisha, priority 2005, dated 2010):
“Also recorded” adds a separate entry of the source.

Key:
[1] = tested on: diabetic patients with good glycemic control (hemoglobin A1C no more than 8%) with a normal level of gastric emptying; assay: Effect of GM-611 on gastroparesis symptom in diabetic patients of good glycemic control with a normal level of gastric emptying (Example 3, FIG. 3); format: in vivo, human
Text: FIG. 3, which is titled “Effect of GM-611 on gastroparesis symptom in diabetic patients of good glycemic control with a normal level of gastric emptying”, is a graph showing results of evaluating the percentage of responders who were in the diabetic patients with good glycemic control with the gastroparesis symptom regardless a normal level of gastric emptying and who perceived an adequate relief of gastroparesis symptom by the administration of the therapeutic and/or preventive agent against gastroparesis symptom according to the present invention; M1R (month 1 responder) refers to patients who had adequate relief in at least 50% of weekly evaluations for the first one month of medication and CR (complete responder) refers to patients who were evaluated as monthly responder for three consecutive months.
(§1) In the following examples, GM-611 (8,9-didehydro-N-demethyl-9-deoxo-6,11-dideoxy-6,9-epoxy-12-O-methyl-N-(1-methylethyl)-11-oxoerythromycin,(2E)-2-butenedioate) was used as a compound of the formula (1). This compound was synthesized in the laboratories of Chugai Pharmaceutical Co., Ltd. as described in WO02/18403 and WO02/30943. To evaluate the efficacy of GM-611 in improving subjective gastroparesis symptom, diabetic patients on insulin therapy were selected. […]
(§2) In order to assess the efficacy of GM-611 in improving subjective gastroparesis symptom, diabetic patients who were presenting with gastroparesis symptom despite a normal level of gastric emptying were selected. […] All assessment in the subjective gastroparesis symptom was evaluated by an electric diary by phone. Starting one week after the initiation of medication, the patients were interviewed every week and asked whether in the past 7 days, you have had adequate relief of your gastroparesis symptoms, and the yes/no answers were recorded. […] Patients who were evaluated as monthly responder for three consecutive months. were assigned as “complete responders” (CR). […]

[2] = tested on: diabetic patients with a longer-than-ten-year history of diabetes with a normal level of gastric emptying; assay: Effect of GM-611 on gastroparesis symptom in diabetic patients of diabetic history longer than 10 years with a normal level of gastric emptying (Example 4, FIG. 4); format: in vivo, human
Text: FIG. 4, which is titled “Effect of GM-611 on gastroparesis symptom in diabetic patients of diabetic history longer than 10 years with a normal level of gastric emptying”, is a graph showing results of evaluating the percentage of responders who were in the diabetic patients of diabetic history longer than 10 years with the gastroparesis symptom regardless a normal level of gastric emptying and who perceived an adequate relief of gastroparesis symptom by the administration of the therapeutic and/or preventive agent against gastroparesis symptom according to the present invention; M1R (month 1 responder) refers to patients who had adequate relief in at least 50% of weekly evaluations for the first one month of medication and CR (complete responder) refers to patients who were evaluated as monthly responder for three consecutive months.
as §1, §2

[3] = tested on: patients of type 1 diabetes with gastroparesis symptom and a normal level of gastric emptying; assay: Effect of GM-611 on gastroparesis symptom in patients of type 1 diabetes with a normal level of gastric emptying (Example 2, FIG. 2); format: in vivo, human; details: type 1 diabetes patients only
Text: FIG. 2, which is titled “Effect of GM-611 on gastroparesis symptom in patients of type 1 diabetes with a normal level of gastric emptying”, is a graph showing results of evaluating the percentage of responders who were in the patients of type 1 diabetes with the gastroparesis symptom regardless a normal level of gastric emptying and who perceived an adequate relief of gastroparesis symptom by the administration of the therapeutic and/or preventive agent against gastroparesis symptom according to the present invention; M1R (month 1 responder) refers to patients who had adequate relief in at least 50% of weekly evaluations for the first one month of medication and CR (complete responder) refers to patients who were evaluated as monthly responder for three consecutive months.
(§3) In the following examples, GM-611 (8,9-didehydro-N-demethyl-9-deoxo-6,11-dideoxy-6,9-epoxy-12-O-methyl-N-(1-methylethyl)-11-oxoerythromycin,(2E)-2-butenedioate) was used as a compound of the formula (1). This compound was synthesized in the laboratories of Chugai Pharmaceutical Co., Ltd. as described in WO02/18403 and WO02/30943. To evaluate the efficacy of GM-611 in improving subjective gastroparesis symptom, diabetic patients on insulin therapy were selected. Since the analyses in the following examples were after the key-open of clinical trial, P<0.01 in a two-tail test was considered to show a significant effect and P<0.1 a tendency.
as §2

[4] = tested on: diabetic patients presenting with gastroparesis symptom despite a normal level of gastric emptying; assay: Effect of GM-611 on gastroparesis symptom in diabetic patients with a normal level of gastric emptying (Example 1, FIG. 1); format: in vivo, human
Text: FIG. 1, which is titled “Effect of GM-611 on gastroparesis symptom in diabetic patients with a normal level of gastric emptying”, is a graph showing results of evaluating the percentage of responders who were in the patients the gastroparesis symptom regardless a normal level of gastric emptying and who perceived an adequate relief of gastroparesis symptom by the administration of the therapeutic and/or preventive agent against gastroparesis symptom according to the present invention; M1R (month 1 responder) refers to patients who had adequate relief in at least 50% of weekly evaluations for the first one month of medication and CR (complete responder) refers to patients who were evaluated as monthly responder for three consecutive months.
as §3
In order to assess the efficacy of GM-611 in improving subjective gastroparesis symptom, diabetic patients who were presenting with gastroparesis symptom despite a normal level of gastric emptying were selected. […] All assessment in the subjective gastroparesis symptom was evaluated by an electric diary by phone. Starting one week after the initiation of medication, the patients were interviewed every week and asked whether in the past 7 days, you have had adequate relief of your gastroparesis symptoms, and the yes/no answers were recorded. […] Patients who were evaluated as monthly responder for three consecutive months. were assigned as “complete responders” (CR).

[5] = tested on: gastric emptying; details: clinical; cited from earlier work
[6] = tested on: patients with gastroparesis; details: 383 patients, both delayed and non-delayed gastric emptying; cited from earlier work

SMILES	P, CR rate in whole GM-611 treated group vs. placebo group by chi-square test [1]	dose dependency of efficacy [1]	efficacy in improving the symptom [1]	P, CR rate in whole GM-611 treated group vs. placebo group by chi-square test [2]	dose dependency of efficacy [2]	efficacy in improving the symptom [2]	P, CR rate in whole GM-611 treated group vs. placebo group by chi-square test [3]	dose dependency of efficacy [3]	efficacy in improving the symptom ([3]; normal gastric emptying)	dose dependency of efficacy [4]	P, CR rate in whole GM-611 treated group vs. placebo group by chi-square test ([4]; complete responders, 3 months)	percentage of responders who had adequate relief in gastroparesis symptom vs placebo group ([4]; twice daily at meals for 3 months, both GM-611 groups)	acceleration of gastric emptying [5]	efficacy on gastroparesis symptom [6]
CC[C@H]1OC(=O)[C@H](C)[C@@H](O[C@H]2C[C@@](C)(OC)[C@@H](O)[C@H](C)O2)[C@H](C)[C@@H](O[C@@H]2O[C@H](C)C[C@H](N(C)C(C)C)[C@H]2O)[C@@]2(C)CC(C)=C(O2)[C@H](C)C(=O)[C@]1(C)OC.O=C(O)/C=C/C(=O)O [GM-611, 8,9-didehydro-N-demethyl-9-deoxo-6,11-dideoxy-6,9-epoxy-12-O-methyl-N-(1-methylethyl)-11-oxoerythromycin,(2E)-2-butenedioate]	0.010	dose-dependent manner	significant efficacy in improving the symptom	0.001	dose-dependent manner	significant efficacy in improving the symptom	0.001	dose-dependent	significant	no apparent dose dependency	0.025	greater than those in the placebo group; also recorded: only a tendency to improve the symptom	–	–
CC[C@H]1OC(=O)[C@H](C)[C@@H](O[C@H]2C[C@@](C)(OC)C[C@H](C)O2)[C@H](C)[C@@H](O[C@@H]2O[C@H](C)C[C@H](N(C)CC)[C@H]2O)[C@@]2(C)CC(C)=C(O2)[C@H](C)[C@@H](O)[C@H]1C [ABT-229]	–	–	–	–	–	–	–	–	–	–	–	–	capable of accelerating gastric emptying	no efficacy
